Where “and” joins values, the source holds several entries; their conditions need not be identical. Equal entries are not always repeated. Toxic doses and inconclusive results are not listed.
Tested on: P388 leukemia ip, CD2F1 mice, survival T/C
Assay: NCI In Vivo Anticancer Drug Screen. Data for tumor model P388 Leukemia (intraperitoneal) in CD2F1 (CDF1) mice
Conditions: endpoint: median survival time, higher = longer survival
Summary of the method: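 Mice carrying the transplanted tumor received test compound or vehicle. Survival was recorded in each group, and the value is the treated-group measurement divided by that of the vehicle-treated control group.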

[1] = dose: 240.0 mg/kg/injection, schedule: Q01DX005 (ip), vehicle: saline with Tween-80
[2] = dose: 100.0 mg/kg/injection, schedule: Q04DX002 (ip), vehicle: saline with Tween-80
[3] = dose: 200.0 mg/kg/injection, schedule: Q04DX002 (ip), vehicle: saline with Tween-80
[4] = dose: 50.0 mg/kg/injection, schedule: Q01DX009 (ip), vehicle: saline
[5] = dose: 400.0 mg/kg/injection, schedule: Q04DX002 (ip), vehicle: saline with Tween-80

## OCC(O)COCCCCCCCCCCCC1C=CCC1 (configuration not stated)
dose: 100.0 mg/kg/injection, schedule: Q04DX003 (ip), vehicle: saline
  T/C: 99 % of control
dose: 200.0 mg/kg/injection, schedule: Q04DX003 (ip), vehicle: saline
  T/C: 99 % of control
dose: 400.0 mg/kg/injection, schedule: Q04DX003 (ip), vehicle: saline
  T/C: 99 % of control

## S=C1NCN(CC2CC2)CN1
dose: 60.0 mg/kg/injection, schedule: Q01DX005 (ip), vehicle: saline with Tween-80
  T/C: 97 % of control
dose: 120.0 mg/kg/injection, schedule: Q01DX005 (ip), vehicle: saline with Tween-80
  T/C: 96 % of control
[1]
  T/C: 94 % of control

## Cc1cc2nc(CC(=O)c3cccnc3)c(=O)[nH]c2cc1C
dose: 7.5 mg/kg/injection, schedule: Q01DX005 (ip), vehicle: saline with Tween-80
  T/C: 100 % of control
dose: 15.0 mg/kg/injection, schedule: Q01DX005 (ip), vehicle: saline with Tween-80
  T/C: 94 % of control
dose: 30.0 mg/kg/injection, schedule: Q01DX005 (ip), vehicle: saline with Tween-80
  T/C: 92 % of control
[1]
  T/C: 88 % of control

## Cc1cc(C)nc(N/N=C/c2c(Cl)cccc2Cl)n1
dose: 50.0 mg/kg/injection, schedule: Q04DX003 (ip), vehicle: Klucel (hydroxypropylcellulose) (HPC)
  T/C: 99 % of control
dose: 100.0 mg/kg/injection, schedule: Q04DX003 (ip), vehicle: Klucel (hydroxypropylcellulose) (HPC)
  T/C: 99 % of control
dose: 200.0 mg/kg/injection, schedule: Q04DX003 (ip), vehicle: Klucel (hydroxypropylcellulose) (HPC)
  T/C: 97 % of control

## COc1cc2ccnc(-c3nccc4cc(OC)c(OC)cc34)c2cc1OC
dose: 100.0 mg/kg/injection, schedule: Q01DX001 (ip), vehicle: saline with Tween-80
  T/C: 97 % of control
dose: 200.0 mg/kg/injection, schedule: Q01DX001 (ip), vehicle: saline with Tween-80
  T/C: 92 % of control
dose: 400.0 mg/kg/injection, schedule: Q01DX001 (ip), vehicle: saline with Tween-80
  T/C: 97 % of control

## CCCCCC(O)/C=C/[C@H]1C(O)CC2OC(CSCCC(=O)O)C[C@@H]21 (some centres not stated)
[2]
  T/C: 103 % of control
[3]
  T/C: 96 % of control

## CN(CCO)C1=CC(=O)C(N2c3ccccc3Nc3cc(O)c(N(C)CCO)cc32)=CC1=O
dose: 50.0 mg/kg/injection, schedule: Q01DX009 (ip), vehicle: suspension in saline
  T/C: 101 % of control
dose: 100.0 mg/kg/injection, schedule: Q01DX009 (ip), vehicle: suspension in saline
  T/C: 99 % of control
dose: 200.0 mg/kg/injection, schedule: Q01DX009 (ip), vehicle: suspension in saline
  T/C: 105 % of control

## CCc1c(C)[nH]n(C(N)=NCCSCc2nc[nH]c2C)c1=O
dose: 60.0 mg/kg/injection, schedule: Q01DX005 (ip), vehicle: Klucel (hydroxypropylcellulose) (HPC)
  T/C: 108 % of control
dose: 120.0 mg/kg/injection, schedule: Q01DX005 (ip), vehicle: Klucel (hydroxypropylcellulose) (HPC)
  T/C: 100 % of control
dose: 240.0 mg/kg/injection, schedule: Q01DX005 (ip), vehicle: Klucel (hydroxypropylcellulose) (HPC)
  T/C: 91 % of control

## C=CC(C=C)O[Si](C)(C)C(C)(C)C
dose: 23.0 mg/kg/injection, schedule: Q01DX005 (ip), vehicle: saline
  T/C: 101 % of control
dose: 46.0 mg/kg/injection, schedule: Q01DX005 (ip), vehicle: saline
  T/C: 105 % of control
dose: 92.0 mg/kg/injection, schedule: Q01DX005 (ip), vehicle: saline
  T/C: 105 % of control

## CCCCCCCCOCC(O)CN(CCO)CCO (configuration not stated)
dose: 12.5 mg/kg/injection, schedule: Q01DX009 (ip), vehicle: saline
  T/C: 107 % of control
dose: 25.0 mg/kg/injection, schedule: Q01DX009 (ip), vehicle: saline
  T/C: 92 % of control
[4]
  T/C: 94 % of control and 97 % of control

## CCOC(=O)CS(=O)(=O)CCCS(=O)(=O)CC(=O)OCC
[4]
  T/C: 97 % of control
dose: 100.0 mg/kg/injection, schedule: Q01DX009 (ip), vehicle: saline
  T/C: 96 % of control
dose: 200.0 mg/kg/injection, schedule: Q01DX009 (ip), vehicle: saline
  T/C: 94 % of control

## CCO/C=C1\SC(=S)N(c2ccco2)C1=O
dose: 100.0 mg/kg/injection, schedule: Q04DX003 (ip), vehicle: saline with Tween-80
  T/C: 118 % of control
dose: 200.0 mg/kg/injection, schedule: Q04DX003 (ip), vehicle: saline with Tween-80
  T/C: 118 % of control
dose: 400.0 mg/kg/injection, schedule: Q04DX003 (ip), vehicle: saline with Tween-80
  T/C: 104 % of control

## NC(=S)n1nc(-c2ccccc2)c(N=Nc2ccc([N+](=O)[O-])cc2)c1-c1ccccc1
dose: 25.0 mg/kg/injection, schedule: Q04DX002 (ip), vehicle: saline with Tween-80
  T/C: 100 % of control
dose: 50.0 mg/kg/injection, schedule: Q04DX002 (ip), vehicle: saline with Tween-80
  T/C: 97 % of control
[2]
  T/C: 87 % of control and 88 % of control
[5]
  T/C: 92 % of control

## COc1ccc2c(c1)CC[C@@H]1[C@@H]2CC[C@]2(C)C(=O)/C(=C/C=C/N(C)C)C[C@@H]12
dose: 12.5 mg/kg/injection, schedule: Q01DX005 (ip), vehicle: saline with Tween-80
  T/C: 90 % of control
dose: 25.0 mg/kg/injection, schedule: Q01DX005 (ip), vehicle: saline with Tween-80
  T/C: 91 % of control
dose: 50.0 mg/kg/injection, schedule: Q01DX005 (ip), vehicle: saline with Tween-80
  T/C: 87 % of control and 89 % of control

## COc1ccc2c(c1O)-c1cc(O)cc3c1C(C2)NCC3 (configuration not stated)
dose: 0.32 mg/kg/injection, schedule: Q04DX003 (ip), vehicle: DMSO
  T/C: 98 % of control
dose: 0.63 mg/kg/injection, schedule: Q04DX003 (ip), vehicle: DMSO
  T/C: 95 % of control
dose: 1.25 mg/kg/injection, schedule: Q04DX003 (ip), vehicle: DMSO
  T/C: 99 % of control
dose: 2.5 mg/kg/injection, schedule: Q04DX003 (ip), vehicle: DMSO
  T/C: 98 % of control
dose: 5.0 mg/kg/injection, schedule: Q04DX003 (ip), vehicle: DMSO
  T/C: 100 % of control

## C[n+]1c(-c2cccc(-c3ccccc3)c2)c2cc([N+](=O)[O-])ccc2c2ccccc21
dose: 1.56 mg/kg/injection, schedule: Q01DX009 (ip), vehicle: Klucel (hydroxypropylcellulose) (HPC)
  T/C: 103 % of control
dose: 3.13 mg/kg/injection, schedule: Q01DX009 (ip), vehicle: Klucel (hydroxypropylcellulose) (HPC)
  T/C: 103 % of control
dose: 6.25 mg/kg/injection, schedule: Q01DX009 (ip), vehicle: Klucel (hydroxypropylcellulose) (HPC)
  T/C: 106 % of control
dose: 12.5 mg/kg/injection, schedule: Q01DX009 (ip), vehicle: Klucel (hydroxypropylcellulose) (HPC)
  T/C: 111 % of control
dose: 25.0 mg/kg/injection, schedule: Q01DX009 (ip), vehicle: Klucel (hydroxypropylcellulose) (HPC)
  T/C: 109 % of control

## C/C(=N\NC(=O)c1cc(C)nc2ccc(Br)cc12)c1ccccc1O
dose: 50.0 mg/kg/injection, schedule: Q01DX009 (ip), vehicle: saline with Tween-80
  T/C: 88 % of control
dose: 100.0 mg/kg/injection, schedule: Q01DX009 (ip), vehicle: saline with Tween-80
  T/C: 94 % of control
dose: 200.0 mg/kg/injection, schedule: Q01DX009 (ip), vehicle: saline with Tween-80
  T/C: 110 % of control

## CC(C)(C)C(=O)Oc1ccc([N+](=O)[O-])cc1
[2]
  T/C: 106 % of control
[3]
  T/C: 122 % of control
[5]
  T/C: 102 % of control

## COc1cc(OC)cc(C2OC(N)=C(O)C2=O)c1 (configuration not stated)
dose: 50.0 mg/kg/injection, schedule: Q01DX005 (ip), vehicle: Klucel (hydroxypropylcellulose) (HPC)
  T/C: 93 % of control
dose: 100.0 mg/kg/injection, schedule: Q01DX005 (ip), vehicle: Klucel (hydroxypropylcellulose) (HPC)
  T/C: 90 % of control
dose: 200.0 mg/kg/injection, schedule: Q01DX005 (ip), vehicle: Klucel (hydroxypropylcellulose) (HPC)
  T/C: 91 % of control

## N#Cc1c(-c2ccc(F)cc2)c(-c2ccc(F)cc2)nn(CCO)c1=O
dose: 12.5 mg/kg/injection, schedule: Q04DX002 (ip), vehicle: distilled water + Tween-80
  T/C: 98 % of control
dose: 25.0 mg/kg/injection, schedule: Q04DX002 (ip), vehicle: distilled water + Tween-80
  T/C: 101 % of control and 108 % of control and 112 % of control
dose: 50.0 mg/kg/injection, schedule: Q01DX005 (ip), vehicle: distilled water + Tween-80
  T/C: 117 % of control
dose: 100.0 mg/kg/injection, schedule: Q04DX002 (ip), vehicle: distilled water + Tween-80
  T/C: 121 % of control and 166 % of control and 201 % of control
dose: 200.0 mg/kg/injection, schedule: Q01DX005 (ip), vehicle: distilled water + Tween-80
  T/C: 155 % of control
dose: 200.0 mg/kg/injection, schedule: Q04DX002 (ip), vehicle: distilled water + Tween-80
  T/C: 150 % of control
dose: 400.0 mg/kg/injection, schedule: Q01DX005 (ip), vehicle: distilled water + Tween-80
  T/C: 238 % of control

## COc1ccc(CC[n+]2cccc(C(=O)c3ccccc3)c2)cc1OC
dose: 12.5 mg/kg/injection, schedule: Q04DX002 (ip), vehicle: saline
  T/C: 97 % of control
dose: 25.0 mg/kg/injection, schedule: Q04DX002 (ip), vehicle: saline
  T/C: 105 % of control
dose: 50.0 mg/kg/injection, schedule: Q04DX002 (ip), vehicle: saline
  T/C: 101 % of control

— PubChem BioAssay AID330 (DTP/NCI, 2004)
